In data set [1] the test system is S.sanguis 10556. The data set can be described thus: Inhibition of bacterial growth (24 h, optical density). In kind it is cell-based, Streptococcus sanguis. Particulars: for IC50: 50% inhibition in growth, 24 hours, means of triplicate experiments, read-out: ID/50 (the source's name); for ID/50: recalculated as ppm F, 1440 min.
Data set [2] has as its system S.mutans OMZ-176. The description is as above. Type of data set: cell-based, Streptococcus mutans. Particulars: for IC50: 50% inhibition in growth, 24 hours, means of triplicate experiments, read-out: ID/50 (the source's name); for ID/50: recalculated as ppm F, 1440 min.
Data set [3] concerns L.casei. The description is as above. In kind it is cell-based, Lactobacillus casei. Particulars: for IC50: 50% inhibition in growth, 24 hours, means of triplicate experiments, read-out: ID/50 (the source's name); for ID/50: recalculated as ppm F, 1440 min.
Data set [4] deals with S.salivarius SS4. The data set is described as above. In kind it is cell-based, Streptococcus salivarius. Particulars: for IC50: 50% inhibition in growth, 24 hours, means of triplicate experiments, read-out: ID/50 (the source's name); for ID/50: recalculated as ppm F, 1440 min.
The test system of data set [5] is S.sanguis 10557. The data set is described as above. Type of data set: cell-based, Streptococcus sanguis. Particulars: for IC50: 50% inhibition in growth, 24 hours, means of triplicate experiments, read-out: ID/50 (the source's name); for ID/50: recalculated as ppm F, 1440 min.
Data set [6] deals with S.salivarius H-257. Described as above. In kind it is cell-based, Streptococcus salivarius. Conditions: for IC50: 50% inhibition in growth, 24 hours, means of triplicate experiments, read-out: ID/50 (the source's name); for ID/50: recalculated as ppm F, 1440 min.
Data set [7] concerns Artificial Plaque. The data set can be described thus: In vitro antiplaque study on saliva-coated aluminium plummets. In kind it is cell-based. Conditions: means ± 95% confidence limits, five replicas.
The conditions of data set [8]: normal temperature and pressure.
Data set [9] in a line: Dissolution of hydroxyapatite discs following fluoride treatment (phosphate release).
Data set [10] concerns Osborne-Mendel rats. The data set can be described thus: Rat caries study. In kind it is in vivo.
For data set [11], the system named is S.mutans 6715. The data set can be described thus: Inhibition of bacterial growth (24 h, optical density). Particulars: recalculated as ppm F, 1440 min. In kind it is cell-based, Streptococcus mutans.
Data set [12] in a line: Stability of solution on standing (haze / turbidity).
A short description of data set [13]: Availability of F ion by fluoride-selective electrode. Type of data set: physicochemical. Particulars: Orion fluoride electrode.
Data set [14] can be described thus: pH of aqueous solution. Type of data set: physicochemical. The text has this:
An aqueous solution of ZnNH4F3 has a pH of 5.8. The preferred pH of oral compositions containing ZnNH4F3 is from 4.5 to 8.0. A 1000 ppm F^- solution was stable.

The conditions of data set [15]: complexing between the Zn and NH4; cited from earlier work.
Setting [16] is: 1000 ppm F- solution, pH 4.0, vs disc treated with buffer alone, means of triplicate, 30 min.
The mark [17] stands for this setting: 1000 ppm F- solution, pH 5.0, vs disc treated with buffer alone, means of triplicate, 30 min.
[18] abbreviates: 1000 ppm F- solution, pH 6.0, vs disc treated with buffer alone, means of triplicate, 30 min.
[19] abbreviates: 1000 ppm F- solution, pH 7.0, vs disc treated with buffer alone, means of triplicate, 30 min.

On to `O=S(=O)([O-])[O-].[Zn+2]` [ZnSO4], for which the IC50 in data set [1] was 0.36 mM; in data set [2], 7.5 mM; in data set [3], 10.4 mM; in [4], 6 mM; in data set [5], 0.4 mM; in data set [6], 0.75 mM. Further, the entries for the “Percentage Inhibition of Growth of Artificial Plaque” value in [7] (Zinc Conc. 6.0 mM/L), in [7] (Zinc Conc. 15.0 mM/L) and in [7] (Zinc Conc. 30.0 mM/L) were 47 ± 14, 51 ± 14 and 64 ± 14, respectively.

`Cl.N.[Cl-].[Cl-].[Zn+2]` [ZnNH4Cl3]: the values for the IC50 in data set [1], in [3] and in [4] were 0.46 mM, 10 mM and 6.5 mM, respectively.

As to `[F][Zn][F]` [ZnF2], the solubility in [8] turned out to be 1.5%.

With `[F-].[Na+]` [NaF], the IC50 was 1.18 mM in data set [1]; 16.3 mM in data set [2]; more than 12 mM in [3]; 13.4 mM in [4]; 1.82 mM in data set [5]; 3.77 mM in data set [6]. Besides, the ID/50 was 22 ppm F in data set [1]; 309 ppm F in [2]; 352 ppm F in data set [3]; 255 ppm F in [4]; 35 ppm F in data set [5]; 72 ppm F in data set [6]. In data set [11], the ID/50 is given as 138 ppm F. In addition, the “% Reduction in Dissolution” value in [9] (setting [16]) came out at 44%; in data set [9] (setting [17]), 36%; in data set [9] (setting [18]), 31%; in [9] (setting [19]) it was 31%. For the same molecule, the “Caries/ Rat” value in data set [10] (1000 ppm F-, topical to molar teeth, 21 days, cariogenic diet, only severe lesions (B & C) scored, water control 5.25) amounted to 3.69. The “% Reduction” value in data set [10] (reduction in caries based on the water control, 1000 ppm F-, topical, 21 days) is listed as 29.7%.

Regarding zinc ammonium fluoride [ZnNH4F3], the IC50 in [1] came to 0.21 mM; in data set [2] it was 3.05 mM; in data set [3] it was 4.7 mM; in data set [4], 1.88 mM; in data set [5], 0.25 mM; in data set [6] it was 0.34 mM. Further, the ID/50 was 12 ppm F in data set [1]; 174 ppm F in data set [2]; 268 ppm F in [3]; 104 ppm F in [4]; 14 ppm F in data set [5]; 19 ppm F in data set [6]. Further, in data set [11], the ID/50 is listed as 92 ppm F. Moreover, the “% Reduction in Dissolution” value in [9] (hydroxyapatite discs, pH 4, 30 min) amounted to 52%; in data set [9] (hydroxyapatite discs, pH 5, 30 min), 49%; in [9] (hydroxyapatite discs, pH 6, 30 min), 43%; in data set [9] (hydroxyapatite discs, pH 7, 30 min), 40%. Also, the “% Reduction” value in [10] (rat, in vivo) is recorded as 30.9%. In addition, in data set [10] (rat, in vivo), the “Caries/ Rat” value came to 3.63. Further, the stability of solution entry in data set [12] (1000 ppm F- solution, not hazy on standing after several weeks) is “stable”. The “availability of F ion” value in data set [13] (solution at 1000 ppm F level) and in data set [13] (solution at 2500 ppm F level) was 100% throughout. Moreover, the “pH of aqueous solution” value in data set [14] was found to be 5.8. In addition, the “log K” value in [15] was 2.18-2.59. Moreover, the “Percentage Inhibition of Growth of Artificial Plaque” value in [7] (Zinc Conc. 6.0 mM/L) came out at 45 ± 14; in data set [7] (Zinc Conc. 15.0 mM/L) it was 48 ± 14; in data set [7] (Zinc Conc. 30.0 mM/L), 60 ± 14.

Take `[F][Sn][F]` [SnF2]: the “% Reduction in Dissolution” value in [9] (setting [16]) is given as 57%; in data set [9] (setting [17]) it was 54%; in data set [9] (setting [18]) it was 45%; in [9] (setting [19]), 43%. Further, in [12] (after 24 hours at room temperature), the stability of solution entry is reported as “developed turbidity”.

The record behind these values is patent publication EP0121012A1, “Oral compositions” (UNILEVER PLC, priority 1983, dated 1984).
